According to patent publication US20240076285A1, “COMPOUNDS AND COMPOSITIONS FOR TREATING CONDITIONS ASSOCIATED WITH STING ACTIVITY” (IFM Due, Inc., priority 2020, published 2024):

Each molecule was assayed against T1, hSTING (Homo sapiens, UniProt Q86WV6, G230A/H232R/R293Q/R71H) (assay: STING reporter assay in THP1-Dual KO-IFNAR2 cells (2'3'cGAMP stimulation, luciferase reporter)). Conditions: 15 μM 2'3'cGAMP, 24 h, class symbols.
T1 construct: host or cells: THP1-Dual KO-IFNAR2 cells
Assay type: cell-based
Method: STING pathway activation by the compounds described herein was measured using THP1-Dual™ cells (KO-IFNAR2).
THP1-Dual™ KO-IFNAR2 Cells (obtained from invivogen) were maintained in RPMI, 10% FCS, 5 ml P/S, 2 mM L-glut, 10 mM Hepes, and 1 mM sodium pyruvate. Compounds were spotted in empty 384 well tissue culture plates (Greiner 781182) by Echo for a final concentration of 0.0017-100 μM. Cells were plated into the TC plates at 40 μL per well, 2×10E6 cells/mL. For activation with STING ligand, 2′3′cGAMP (MW 718.38, obtained from Invivogen), was prepared in Optimem media.
The following solutions were prepared for each 1×384 plate: • Solution A: 2 mL Optimem with one of the following stimuli: • 60 μL of 10 mM 2′3′cGAMP→150 μM stock • Solution B: 2 mL Optimem with 60 μL Lipofectamine 2000→Incubate 5 min at RT
2 mL of solution A and 2 ml Solution B was mixed and incubated for 20 min at room temperature (RT). 20 μL of transfection solution (A+B) was added on top of the plated cells, with a final 2′3′cGAMP concentration of 15 μM. The plates were then centrifuged immediately at 340 g for 1 minute, after which they were incubated at 37° C., 5% CO2, >98% humidity for 24 h. Luciferase reporter activity was then measured. EC50 values were calculated by using standard methods known in the art.
Luciferase reporter assay: 10 μL of supernatant from the assay was transferred to white 384-plate with flat bottom and squared wells. One pouch of QUANTI-Luc™ Plus was dissolved in 25 mL of water. 100 μL of QLC Stabilizer per 25 mL of QUANTI-Luc™ Plus solution was added. 50 μL of QUANTI-Luc™ Plus/QLC solution per well was then added. Luminescence was measured on a Platereader (e.g., Spectramax I3X (Molecular Devices GF3637001)).
Luciferase reporter activity was then measured. EC50 values were calculated by using standard methods known in the art.

T1 sequence (Q86WV6 whole entry R71H/G230A/H232R/R293Q): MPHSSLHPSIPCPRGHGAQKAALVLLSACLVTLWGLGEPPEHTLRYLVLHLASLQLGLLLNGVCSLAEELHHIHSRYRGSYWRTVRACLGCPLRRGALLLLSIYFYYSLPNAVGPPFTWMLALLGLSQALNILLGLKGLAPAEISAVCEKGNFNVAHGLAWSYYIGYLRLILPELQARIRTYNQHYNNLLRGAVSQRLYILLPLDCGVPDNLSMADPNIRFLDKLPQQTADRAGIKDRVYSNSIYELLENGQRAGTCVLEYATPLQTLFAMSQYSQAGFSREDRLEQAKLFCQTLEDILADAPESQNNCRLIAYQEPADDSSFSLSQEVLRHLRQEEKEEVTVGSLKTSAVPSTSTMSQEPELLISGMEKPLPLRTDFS

Q: With `N#Cc1cc(N2CCN(CC(F)(F)F)CC2)cc(Nc2cc(Cl)c3cc[nH]c3c2)n1` [Compound 148, 6-[(4-chloro-1H-indol-6-yl)amino]-4-[4-(2,2,2-trifluoroethyl)piperazin-1-yl]pyridine-2-carbonitrile] as the molecule, how does the EC50 read?
A: 1 to 5 µM

Q: With `N#Cc1cc(Nc2ccc(OC(F)F)nc2)cc(Nc2ccc3cc[nH]c3c2)n1` [Compound 126, 4-{[6-(difluoromethoxy)pyridin-3-yl]amino}-6-[(1H-indol-6-yl)amino]pyridine-2-carbonitrile] as the molecule, how does the EC50 read?
A: 0.2 to 1 µM

Q: Which EC50 does the source give for `N#Cc1cc(N2CCOCC2)cc(Nc2ccc3cc[nH]c3c2)n1` [Compound 114, 6-[(1H-indol-6-yl)amino]-4-(morpholin-4-yl)pyridine-2-carbonitrile] here?
A: 5 to 100 µM

Q: With `N#Cc1cc(Nc2ccc3c(c2)OCCO3)cc(Nc2ccc3cc[nH]c3c2)n1` [Compound 144, 4-[(2,3-dihydro-1,4-benzodioxin-6-yl)amino]-6-[(1H-indol-6-yl)amino]pyridine-2-carbonitrile] as the molecule, how does the EC50 read?
A: 1 to 5 µM

Q: With `Cc1nc2ccc(Nc3cc(C#N)nc(Nc4ccc5cc[nH]c5c4)c3)cc2s1` [Compound 105, 6-[(1H-indol-6-yl)amino]-4-[(2-methyl-1,3-benzothiazol-6-yl)amino]pyridine-2-carbonitrile] as the molecule, how does the EC50 read?
A: 1 to 5 µM

Q: With `N#Cc1cc(Nc2ccc(F)c(Cl)c2)cc(Nc2ccc3cc[nH]c3c2)n1` [Compound 140, 6-((1H-indol-6-yl)amino)-4-((3-chloro-4-fluorophenyl)amino)picolinonitrile] as the molecule, how does the EC50 read?
A: 0.2 to 1 µM

Q: For `N#Cc1cc(Nc2ccc(C(F)(F)F)nc2)cc(Nc2ccc3cc[nH]c3c2)n1` [Compound 130, 6-[(1H-indol-6-yl)amino]-4-{[6-(trifluoromethyl)pyridin-3-yl]amino}pyridine-2-carbonitrile], which EC50 is on record?
A: 0.2 to 1 µM

Q: `COc1ccc(Nc2cc(C#N)nc(Nc3ccc4cc[nH]c4c3)c2)cn1` [Compound 131, 6-[(1H-indol-6-yl)amino]-4-[(6-methoxypyridin-3-yl)amino]pyridine-2-carbonitrile] was tested. Which EC50 did it give?
A: 1 to 5 µM

Q: With `N#Cc1cc(Nc2ccc3c(c2)OC(F)(F)C(F)(F)O3)cc(Nc2ccc3cc[nH]c3c2)n1` [Compound 143, 6-((1H-indol-6-yl)amino)-4-((2,2,3,3-tetrafluoro-2,3-dihydrobenzo[b][1,4]dioxin-6-yl)amino)picolinonitrile] as the molecule, how does the EC50 read?
A: 0.2 to 1 µM

Q: With `N#Cc1cc(Nc2cc(Cl)cc(Cl)c2)cc(Nc2cc(Cl)c3cc[nH]c3c2)n1` [Compound 164, 6-[(4-chloro-1H-indol-6-yl)amino]-4-[(3,5-dichlorophenyl)amino]pyridine-2-carbonitrile] as the molecule, how does the EC50 read?
A: 0.2 to 1 µM

Q: Which EC50 does the source give for `N#Cc1cc(Nc2ccc(Cl)c(F)c2)cc(Nc2ccc3cc[nH]c3c2)n1` [Compound 139, 4-[(4-chloro-3-fluorophenyl)amino]-6-[(1H-indol-6-yl)amino]pyridine-2-carbonitrile] here?
A: 0.2 to 1 µM

Q: With `N#Cc1cc(Nc2cc(F)cc(F)c2)cc(Nc2ccc3cc[nH]c3c2)n1` [Compound 137, 4-[(3,5-difluorophenyl)amino]-6-[(1H-indol-6-yl)amino]pyridine-2-carbonitrile] as the molecule, how does the EC50 read?
A: 0.2 to 1 µM

Q: For `N#Cc1cc(N2CCC(Cc3ccc(F)cc3)CC2)cc(Nc2cc(Cl)c3cc[nH]c3c2)n1` [Compound 149, 6-[(4-chloro-1H-indol-6-yl)amino]-4-{4-[(4-fluorophenyl)methyl]piperidin-1-yl}pyridine-2-carbonitrile], which EC50 is on record?
A: 0.2 to 1 µM

Q: How did the EC50 turn out when `N#Cc1cc(Nc2cc(F)cc(C(F)(F)F)c2)cc(Nc2ccc3cc[nH]c3c2)n1` [Compound 110, 4-{[3-fluoro-5-(trifluoromethyl)phenyl]amino} 6-[(1H-indol-6-yl)amino]pyridine-2-carbonitrile] was run?
A: 0.2 to 1 µM

Q: For `N#Cc1cc(Nc2ccc(OC(F)(F)F)nc2)cc(Nc2ccc3cc[nH]c3c2)n1` [Compound 125, 6-[(1H-indol-6-yl)amino]-4-{[6-(trifluoromethoxy)pyridin-3-yl]amino}pyridine-2-carbonitrile], which EC50 is on record?
A: 0.2 to 1 µM

Q: `CC1(C)C(=O)Nc2cc(Nc3cc(C#N)nc(Nc4ccc5cc[nH]c5c4)c3)ccc21` [Compound 122, 4-[(3,3-dimethyl-2-oxo-2,3-dihydro-1H-indol-6-yl)amino]-6-[(1H-indol-6-yl)amino]pyridine-2-carbonitrile] was tested. Which EC50 did it give?
A: 1 to 5 µM

Q: Which EC50 does the source give for `Cc1nc2ccc(Nc3cc(C#N)nc(Nc4cc(Cl)c5cc[nH]c5c4)c3)cc2s1` [Compound 179, 6-[(4-chloro-1H-indol-6-yl)amino]-4-[(2-methyl-1,3-benzothiazol-6-yl)amino]pyridine-2-carbonitrile] here?
A: 0.2 to 1 µM

Q: Which EC50 does the source give for `CC1(C)CCN(c2cc(C#N)nc(Nc3cc(Cl)c4cc[nH]c4c3)c2)CC1` [Compound 160, 6-[(4-chloro-1H-indol-6-yl)amino]-4-(4,4-dimethylpiperidin-1-yl)pyridine-2-carbonitrile] here?
A: 0.2 to 1 µM

Q: `CC(C)c1cncc(Nc2cc(C#N)nc(Nc3cc(Cl)c4cc[nH]c4c3)c2)c1` [Compound 162, 6-[(4-chloro-1H-indol-6-yl)amino]-4-{[5-(propan-2-yl)pyridin-3-yl]amino}pyridine-2-carbonitrile] was tested. Which EC50 did it give?
A: 0.2 to 1 µM

Q: For `CC(C)CN1CCN(c2cc(C#N)nc(Nc3ccc4cc[nH]c4c3)c2)CC1` [Compound 113, 6-[(1H-indol-6-yl)amino]-4-[4-(2-methylpropyl)piperazin-1-yl]pyridine-2-carbonitrile], which EC50 is on record?
A: 1 to 5 µM

Q: For `N#Cc1cc(Nc2ccc3cc[nH]c3c2)cc(Nc2ccc3cc[nH]c3c2)n1` [Compound 145], which EC50 is on record?
A: 0.2 to 1 µM

Q: Which EC50 does the source give for `N#Cc1cc(Nc2cncc(F)c2)cc(Nc2ccc3cc[nH]c3c2)n1` [Compound 129, 4-[(5-fluoropyridin-3-yl)amino]-6-[(1H-indol-6-yl)amino]pyridine-2-carbonitrile] here?
A: 1 to 5 µM

Q: With `N#Cc1cc(Nc2ccc(Cl)c(F)c2)cc(Nc2cc(Cl)c3cc[nH]c3c2)n1` [Compound 165, 6-[(4-chloro-1H-indol-6-yl)amino]-4-[(4-chloro-3-fluorophenyl)amino]pyridine-2-carbonitrile] as the molecule, how does the EC50 read?
A: 0.04 to 0.2 µM

Q: `N#Cc1cc(N2CCC(C(F)(F)F)CC2)cc(Nc2cc(Cl)c3cc[nH]c3c2)n1` [Compound 147, 6-[(4-chloro-1H-indol-6-yl)amino]-4-[4-(trifluoromethyl)piperidin-1-yl]pyridine-2-carbonitrile] was tested. Which EC50 did it give?
A: 0.2 to 1 µM

Q: Which EC50 does the source give for `N#Cc1cc(Nc2ccc(F)c(F)c2)cc(Nc2ccc3cc[nH]c3c2)n1` [Compound 116, 4-[(3,4-difluorophenyl)amino]-6-[(1H-indol-6-yl)amino]pyridine-2-carbonitrile] here?
A: 0.2 to 1 µM

Q: Which EC50 does the source give for `N#Cc1cc(Nc2ccc3c(c2)CC(=O)N3)cc(Nc2cc(Cl)c3cc[nH]c3c2)n1` [Compound 181, 6-[(4-chloro-1H-indol-6-yl)amino]-4-[(2-oxo-2,3-dihydro-1H-indol-5-yl)amino]pyridine-2-carbonitrile] here?
A: 1 to 5 µM

Q: With `COC1CCN(c2cc(C#N)nc(Nc3cc(Cl)c4cc[nH]c4c3)c2)CC1` [Compound 156, 6-[(4-chloro-1H-indol-6-yl)amino]-4-(4-methoxypiperidin-1-yl)pyridine-2-carbonitrile] as the molecule, how does the EC50 read?
A: 1 to 5 µM

Q: Which EC50 does the source give for `N#Cc1cc(Nc2ccc3c(c2)C(=O)NC3)cc(Nc2cc(Cl)c3cc[nH]c3c2)n1` [Compound 180, 6-[(4-chloro-1H-indol-6-yl)amino]-4-[(3-oxo-2,3-dihydro-1H-isoindol-5-yl)amino]pyridine-2-carbonitrile] here?
A: 1 to 5 µM
